Measured values from US10758541B2, “Formulations of milciclib and therapeutic combinations of the same for use in the treatment of cancer” (Tiziana Life Sciences PLC, priority 2017, dated 2020).

How the values were obtained:
Alphafetoprotein (AFP) = experiment: AFP ELISA assay in MHCC97H cells; assay type: cell-based, human; details: 1.3 μM, 72 hours, vs vehicle control
Method: (§1) MHCC97H cells were seeded at a density of 500,000 cells/2 mL/well on a 6 well culture plate and incubated overnight at 37° C. in a humidified CO2 incubator. Cells were then treated with 1.3 μM milciclib or vehicle in DMEM/F12+2% FBS for 72 hours. Subsequently, cells were lysed in RIPA buffer, the supernatant was collected and used to perform ELISA assay as per the manufacturer's instructions. In orthotopic HCC mouse model, levels of serum marker alpha-fetoprotein (AFP) were determined on day 0, 6, 12, 18, 24, 30, 36, 42 and 48 using High Range AFP kit as per manufacturer's instructions.

HepG2.2.15 cells = experiment: Wound healing assay; assay type: cell-based, human; details: scratched monolayer of HepG2.2.15 cells, 96 hours, vs vehicle control
Method: (§2) Cells were seeded at a density of 500,000 cells/2 mL/well on to a collagen-coated 6-well culture plate and incubated overnight in a humidified CO2 incubator at 37° C. to form a uniform monolayer. The monolayer was then scratched in a straight line with a new 10 μL pipette tip across the center of the well. After scratching, cells were washed with sterile PBS once to remove detached cells. Subsequently, wells were replenished with fresh DMEM/F12 containing 2% FBS and the test article either alone or in combination with milciclib. […] Images were analyzed using SlideBook™ 5 software. The values were expressed as a percentage of migration. See Saxena N K, Sharma D, Ding X, et al. Concomitant activation of the JAK/STAT, PI3K/AKT, and ERK signaling is involved in leptin-mediated promotion of invasion and migration of hepatocellular carcinoma cells. Cancer Res. 2007; 67: 2497-2507.

MHCC97L cells = experiment: Wound healing assay; assay type: cell-based, human; details: scratched monolayer of MHCC97L cells, 96 hours, vs vehicle control
Method: as §2

[1] = test system: MHCC97H human liver cells; experiment: Orthotopic tumor induction in athymic nude mice; assay type: in vivo; details: oral, once daily day 12 to 47; milciclib 30 mg/kg/day, sorafenib 20 mg/kg/day; vs vehicle
Method: Mouse experiments were performed in accordance with the guidelines approved by the Institutional Animal Care and use committee of Washington Biotechnology Inc (Baltimore, Md.) where the studies were conducted. (FIG. 66) Test agents were dissolved in chremophor/ethanol (1:1) to make a 5× stock solution and diluted in water when used. MHCC97H human liver cells (5×106) in PBS were mixed with 20% Matrigel and then inoculated orthotopically into the right flank of female Balb/c nude mice. Seven days after cell inoculation, the mice were randomly allocated to either the treatment group (n=12) or the control group (n=12) based on the levels of AFP. The daily animal inspection was conducted for general appearance and tumor growth. Milciclib (30 mg/Kg), sorafenib (20 mg/Kg), milciclib+sorafenib or the corresponding vehicle was given orally to individual mice once daily from day 12 until day 47. After completion of the treatment at day 48, animals were euthanized and blood, liver tissues and tumor were collected for gene expression and mechanistic assays. Liver tumors developed 100% of animals challenged with orthotopic MHCC97H injection.

alpha-fetoprotein (AFP) = experiment: Serum AFP in orthotopic HCC mouse model; assay type: in vivo, mice; details: milciclib 30 mg/kg, sorafenib 20 mg/kg, oral, vs vehicle
Method: as §1
Mouse experiments were performed in accordance with the guidelines approved by the Institutional Animal Care and use committee of Washington Biotechnology Inc (Baltimore, Md.) where the studies were conducted. (FIG. 66) Test agents were dissolved in chremophor/ethanol (1:1) to make a 5× stock solution and diluted in water when used. MHCC97H human liver cells (5×106) in PBS were mixed with 20% Matrigel and then inoculated orthotopically into the right flank of female Balb/c nude mice. Seven days after cell inoculation, the mice were randomly allocated to either the treatment group (n=12) or the control group (n=12) based on the levels of AFP. The daily animal inspection was conducted for general appearance and tumor growth. […]

miR-221 and miR-222 = experiment: miRNA isolation and expression analysis of tumor tissues; assay type: in vivo; details: tumor tissues from orally treated mice, vs vehicle
Method: miRNA from athymic nude mice following treatment with vehicle, milciclib, sorafenib, or milciclib+sorafenib was isolated from Total RNA using the TaqMan Advanced miRNA cDNA Synthesis Kit (Thermo Fisher Scientific, Rockford, Ill.) according to the manufacturer's instructions. miRNA-221 and miR-222 quantifications were performed in duplicates using TaqMan Advanced miRNA Assay (Thermo Fisher Scientific, Rockford, Ill.) with a sample dilution of 1:10. The PCR mixture was incubated at 95° C. for 20 seconds, followed by 40 cycles of 95° C. for 3 seconds and 60° C. for 30 seconds. Results were normalized to hsa-miR-192-5p as reference miRNA and the relative gene expression calculated as 2−ΔCT was expressed as fold increase over control samples.
Tumor tissues from mice treated with vehicle, sorafenib, milciclib, milciclib+sorafenib and normal liver tissues from naïve untreated mice were collected and levels of miR-221 and miR-222 were determined. The levels of both of miR-221 and miR-222 were elevated in tumors from vehicle treated mice.

[2] = test system: p27, p21, p57, p53, cyclin D1, cyclin E2, MKI67, c-Myc, CdC6; experiment: Quantitative real-time PCR gene expression in orthotopic HCC tumors; assay type: in vivo; details: orthotopic HCC mice
Method: Total RNA was extracted using the RNeasy Mini kit according to the manufacturer's instructions (Qiagen, Germantown, Md.). RNA was quantified using Nanodrop Lite (Thermo Scientific, Wilmington, Del.). Complementary DNA (cDNA) synthesis was performed by reverse transcription of total RNA using the High Capacity cDNA Reverse Transcription Kit (Thermo Fisher Scientific, Rockford, Ill.). Real-time quantitative PCR was employed using the LightCycler 480 Instrument II (Roche Diagnostics Corporation, Indianapolis, Ind.) using TaqMan Fast Advanced Master Mix and TaqMan Gene Expression probes for human p27, cyclin E2, cyclin A2, CdC6, MKI67, cyclin D1, p21, p57, c-Myc and p53 (Thermo Fisher Scientific). The expression of target genes was normalized to the housekeeping gene GAPDH in each sample. All samples were run in duplicate and the relative gene expression calculated as 2−ΔCT was expressed as fold increase over control samples.

[3] = test system: pAKT (Ser473), AKT, c-Myc, Cyclin D1, PTEN; experiment: Western blot analysis of tumor tissues; assay type: in vivo, mice; details: liver samples, vs vehicle treated group
Method: The tumor tissues from a thymic nude mice were weighed and homogenized with RIPA lysis buffer (Sigma-Aldrich, St. Louis, Mo.) and protease inhibitor cocktail (Sigma-Aldrich, St. Louis, Mo.). Tumor lysates were cleared by centrifugation and the protein concentration was determined using Bradford reagent (Sigma-Aldrich, St. Louis, Mo.). Equal amounts of protein (30 μg) were resolved on precast polyacrylamide gels (Thermo Fisher Scientific, Rockford, Ill.) and transferred to nitrocellulose membrane, 0.2 μm pore size (Thermo Fisher Scientific, Rockford, Ill.). The blots were blocked with 5% (w/v) nonfat dry milk for 2 h at room temperature and then probed with primary antibody overnight at 4° C. The primary antibodies were directed against the following proteins: human PTEN, human AKT and phospho-AKT (Ser473), human c-Myc, human CyclinD1 and human β-actin (Cell Signaling Technology, Beverly, Mass.). After three washes, incubation was followed by the reaction with horseradish peroxidase-conjugated secondary antibody for 1 h at room temperature. The immunoreactive bands were visualized using Image Studio 4.0-Western Analysis Ribbon (Li-Cor, Lincoln, Nebr.).

`CNC(=O)c1nn(C)c2c1C(C)(C)Cc1cnc(Nc3ccc(N4CCN(C)CC4)cc3)nc1-2` [MILCICLIB, N,1,4,4-tetramethyl-8-((4-(4-methylpiperazin-1-yl)phenyl)amino)-4,5-dihydro-1H-pyrazolo[4,3-h]quinazoline-3-carboxamide] was tested, and the AFP levels (Alphafetoprotein (AFP)) was “Appreciably lower”, the cell migration (HepG2.2.15 cells) was “reduced cell migration” and the cell migration (MHCC97L cells) was “reduced cell migration”. The reducing tumor growth [1] was 20%, the “serum AFP levels” value (alpha-fetoprotein (AFP)) was “Significantly lower” and the “expression of miR-221 and miR-222” value (miR-221 and miR-222) was “significantly reduced”. The “expression of cell proliferation genes such as MKI67, cdc6, c-Myc” value ([2]; oral administration) was “downregulated”, the “expression of cyclins such as cyclin E2 and cyclin D1” value ([2]; oral administration) was “downregulated” and the “expression of tumor suppressors such as p27, p21, p53 and p57” value ([2]; oral treatment) was “upregulated”. The PTEN expression [3] was “upregulation” and the “pAKT, c-Myc and cyclin D1 expression” value [3] was “reduction”.
